Data: patent US20250195540A1, “Use of dehydroepiandrosterone (DHEA) in preparation of drug for preventing and treating ophthalmic myopia, dosage forms of DHEA, and preparation methods of dosage forms” (Zhongshan Ophthalmic Center of Sun Yat-sen University, priority 2022, published 2025)

System: form deprivation myopia (FDM) model
Test: Efficacy research in form deprivation myopia (FDM) model
Type: in vivo, colored guinea pigs
Details: applied locally to eyes
Excerpt: (1) A total of 40 healthy three-week-old colored guinea pigs were randomly selected and randomly divided into 8 groups with 5 guinea pigs in each group. The 8 guinea pig groups includes a first group: a normal control group, a second group: a myopia model-alone group, a third group: a myopia model+0.01% DHEA-based eye drop group, a fourth group: a myopia model+0.1% DHEA-based eye drop group, a fifth group: myopia model+1% DHEA-based eye drop group, a sixth group: a myopia model+2% DHEA-based eye drop group, a seventh group: a myopia model+DHEA-based eye ointment group, and an eighth group: a myopia model+DHEA-based gel group. There were no statistically-significant differences in the baseline diopter and AL of the right eye among the groups.
(2) Establishment of a form deprivation myopia (FDM) model: the right eye was covered and the left eye was normally opened. […]
A) Diopter measurement: the optometry was conducted with a streak retinoscope and lenses of different diopters, and an average of diopters in horizontal and vertical meridians was taken. The optometry was conducted 3 times, and an average was taken and recorded as a result.
B) AL measurement: ALs of both eyes were measured by an A-mode ultrasound instrument. Results of 6 measurements under waveform standards were selected, and an average was taken and recorded as a result, which was accurate to 0.01 mm.

SMILES: C[C@]12CC[C@H](O)CC1=CC[C@@H]1[C@@H]2CC[C@]2(C)C(=O)CC[C@@H]12 [DHEA, 3-β-hydroxyandrost-5-en-17-one]
- Growth of axial length (AL) in animal models: reduce the growth of axial length (AL)
